Patent publication US20120196824A1, “THERAPEUTIC AGENT FOR CEREBRAL INFARCTION” (MITSUBISHI TANABE PHARMA CORPORATION, priority 2009, published 2012)
Where a name gives a salt, the structure may show the parent alone.

Assays:
homocysteine synthesis = assay: Measurement of homocysteine synthesis inhibitory activity in vivo (methionine-loaded mouse, plasma homocysteine); settings: dose of 10 mg/kg, oral, BALB/c mouse; methionine water 1 hr later; plasma 30 min after; read-out: activity (homocysteine synthesis inhibitory rate)
Procedure: A sample was orally administered to BALB/c mouse and, 1 hr later, methionine water (50 g/L) was orally administered at a proportion of 10 ml/kg. 30 min later, blood samples were collected with heparin from the abdominal vein and plasma was obtained. The plasma homocysteine concentration was measured by treating the plasma with tributylphosphine, removing protein with 10% trichloroacetic acid (TCA), fluorescent labeling the supernatant with 4-fluoro-7-sulfobenzofurazan ammonium salt (SBD-F) under alkali conditions, and quantifying by HPLC. The homocysteine synthesis inhibitory rate of the sample was determined with the difference in the homocysteine value between methionine water-loaded animal and methionine water-unloaded animal as 100%. The detailed conditions of HPLC were as follows.
column used: Wakopak^R HandyODS 150*4.6 mm (Wako Pure Chemical Industries, Ltd.) elution condition: 1.0 ml/min elution solvent: 0.1M phosphate buffer (pH 6.0) 2% methanol wavelength: ex 385 nm em 515 nm

[1] = system: Mouse Ischemic Stroke Model; assay: Infarct volume suppressive and motor function improving effects in mouse ischemic stroke model (Rose Bengal photothrombosis, TTC staining, Rota-rod); type: in vivo; settings: dose of 10 mg/kg; for infarct volume suppression rate (%): two administrations, measured two days later, TTC staining; for walking time (%): walking time on Rota-Rod with Vehicle 100%, two days later
Procedure: Mouse was fixed under isoflurane anesthesia and the scalp was incised. Rose Bengal (7.5 mg/kg) was administered i.v., and green light (550 nm, Hamamatsu Photonics, K.K.) was immediately irradiated at 2 mm side and 1 mm above the bregma for 5 min. Thereafter, the scalp was bonded with an instant glue. To the test drug and control groups was given the first administration after the mice awoke, and they were subjected to the administration again the next day. Two days later, motor function was evaluated by Rota-rod (up to 60 sec, walking time on Rota-Rod was measured). Then the brain was removed, sliced in 1 mm, the site of infaction was decided by 1% TTC staining and the volume was measured by image analysis. The infarct volume suppression rate (%) and walking time (%) on Rota-Rod with Vehicle 100% at the dose of 10 mg/kg are shown in the following Table. In addition, walking time (sec) on Rota-Rod and infarct volume suppression rate (mm^3) when 3-deazaadenosine was used as a test drug are shown in FIG. 1 and FIG. 2.

[2] = biological target: T1, Human-recombinant-S-Adenosyl-L-Homocysteine Hydrolase (Homo sapiens, UniProt P23526); assay: Measurement of enzyme inhibitory activity (hydrolysis of S-Adenosyl-L-Homocysteine, HPLC); type: biochemical; settings: S-Adenosyl-L-Homocysteine 10 μM, pH 7.2, 37° C., 15 min
T1 construct: purchased Diazyme Laboratories
Method in brief: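 Reactions contained recombinant human SAH hydrolase (50 ng), 10 μM S-adenosyl-L-homocysteine and adenosine deaminase (4 units) in 50 mM phosphate buffer, pH 7.2, with 1 mM EDTA, run 15 min at 37 °C. Remaining substrate was measured by reversed-phase HPLC (UV 258 nm). Inhibitory rate compared substrate depletion with versus without compound.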

T1 sequence (P23526 whole entry): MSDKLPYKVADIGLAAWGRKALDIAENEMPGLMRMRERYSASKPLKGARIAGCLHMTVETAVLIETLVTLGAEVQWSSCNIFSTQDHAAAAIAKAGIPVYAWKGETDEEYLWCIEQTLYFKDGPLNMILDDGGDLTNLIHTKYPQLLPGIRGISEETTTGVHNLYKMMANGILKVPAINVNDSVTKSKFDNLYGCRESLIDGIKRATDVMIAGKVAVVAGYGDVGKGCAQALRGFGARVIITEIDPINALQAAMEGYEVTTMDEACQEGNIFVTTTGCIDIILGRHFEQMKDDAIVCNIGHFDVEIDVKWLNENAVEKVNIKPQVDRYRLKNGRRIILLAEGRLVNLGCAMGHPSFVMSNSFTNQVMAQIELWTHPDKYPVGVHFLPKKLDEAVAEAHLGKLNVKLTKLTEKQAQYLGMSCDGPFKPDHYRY

IC50 [2] [nM] | Compound | inhibition in vivo at 10 mg/kg (homocysteine synthesis) [%] | infarct volume suppression rate (%) [1] [%] | walking time (%) [1] [%]
39 | CCNCCNC(=O)CN(CC(=O)N(C)N1Cc2ccc(F)cc2C1)c1cc(-c2noc(C)n2)ccc1C.Cl [Example 20, N^2-{2-[(5-fluoro-1,3-dihydro-2H-isoindol-2-yl)(methyl)amino]-2-oxoethyl}-N^2-[2-methyl-5-(5-methyl-1,2,4-oxadiazol-3-yl)phenyl]-N^1-[2-(ethylamino)ethyl]glycinamide] | ≥ 40 | 26 | 240
47 | CCNCCNC(=O)CN(CC(=O)N(C)N1Cc2ccccc2C1)c1ccc(-c2noc(C)n2)cc1C [Example 65, N^2-{2-[1,3-dihydro-2H-isoindol-2-yl(methyl)amino]-2-oxoethyl}-N^2-[2-methyl-4-(5-methyl-1,2,4-oxadiazol-3-yl)phenyl]-N^1-[2-(ethylamino)ethyl]glycinamide] | ≥ 40 | 30 | 250
47 | CCNCCNC(=O)CN(CC(=O)N(C)N1Cc2ccc(F)cc2C1)c1cc2c(cc1C)CCC2=O [Example 215, N^2-{2-[(5-fluoro-1,3-dihydro-2H-isoindol-2-yl)(methyl)amino]-2-oxoethyl}-N^2-(6-methyl-3-oxo-2,3-dihydro-1H-inden-5-yl)-N^1-[2-(ethylamino)ethyl]glycinamide] | ≥ 40 | 19 | 340
20 | CCNCCNC(=O)CN(CC(=O)N(C)N1Cc2ccc(F)cc2C1)c1cc2cnn(CC(F)F)c2cc1C [Example 253, N^2-[1-(2,2-difluoroethyl)-6-methyl-1H-indazol-5-yl]-N^2-{2-[(5-fluoro-1,3-dihydro-2H-isoindol-2-yl)(methyl)amino]-2-oxoethyl}-N^1-[2-(ethylamino)ethyl]glycinamide hydrochloride] | ≥ 40 | 16 | 230
